In article PMC7217877, “N-AS-triggered SPMs are direct regulators of microglia in a model of Alzheimer’s disease” (Nature Communications, 2020):
Where “and” joins values, the source holds several entries; their conditions need not be identical. Identical values can stand only once.

How the values were obtained:
COX2 T564A = target: T1, COX2 T564A (Homo sapiens, UniProt P35354, T564A); assay: in vitro [14C] acetylation assay of purified COX2; format: biochemical; design: unit not given here; settings: replicates, listed as C14 N-AS
T1 construct: His (N); made in house
T1 sequence (P35354 18-604 T564A): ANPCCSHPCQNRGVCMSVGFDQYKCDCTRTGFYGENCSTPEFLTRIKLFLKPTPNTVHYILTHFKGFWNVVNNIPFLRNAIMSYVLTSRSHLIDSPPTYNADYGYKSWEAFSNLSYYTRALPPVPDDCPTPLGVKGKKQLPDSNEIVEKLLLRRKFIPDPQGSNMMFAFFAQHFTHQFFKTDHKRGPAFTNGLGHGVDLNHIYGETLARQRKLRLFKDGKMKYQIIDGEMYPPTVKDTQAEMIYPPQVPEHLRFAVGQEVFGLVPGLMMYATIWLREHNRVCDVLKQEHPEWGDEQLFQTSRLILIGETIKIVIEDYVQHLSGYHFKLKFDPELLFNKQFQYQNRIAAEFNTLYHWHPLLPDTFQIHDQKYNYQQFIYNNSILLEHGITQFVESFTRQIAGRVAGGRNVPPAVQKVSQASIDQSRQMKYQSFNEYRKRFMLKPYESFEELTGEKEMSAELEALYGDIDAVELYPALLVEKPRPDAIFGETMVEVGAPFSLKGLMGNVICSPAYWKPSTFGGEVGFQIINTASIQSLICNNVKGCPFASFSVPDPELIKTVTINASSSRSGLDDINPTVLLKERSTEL
Description: Single point mutations in SphK1 (R56A, R57A, R24A, R185A, D178A, and F192A) and COX2 (S565A, N181A, T564A, and S567A) were generated using the In-Fusion Cloning Kits (Clontech) and ORF cDNA expression plasmids of human SphK1 and COX2 gene (Sino Biological Inc, HG15679-NH and HG12036-NH), according to the manufacturer’s instructions. The forward and reverse primers described in Supplementary Table 4. The SphK1 WT, SphK1 mutants, COX2 WT, and COX2 mutant plasmids were transformed in the One shot TOP 10 competent cell (Invitrogen). The bacteria were grown in Luria-Bertani (LB, Invitrogen) plates supplemented with 50 μg ml^−1 kanamycin (Sigma-Aldrich) at 37 °C. The bacterial cell pellets were resuspended in lysis buffer containing 20 mM sodium phosphate (GE Healthcare), 500 mM NaCl (GE Healthcare), 20 mM imidazole (pH 7.4) (GE Healthcare), 0.2 mg ml^−1 lysozyme (Sigma-Aldrich), 20 μg ml^−1 DNase I (Roche), 1 mM MgCl2 (Sigma-Aldrich), and 1 mM PMSF (Sigma-Aldrich) before being lysed by sonication and clarified by centrifugation at 15,493×g for 10 min. […]
Acetylation assays were performed according to previously described procedures with minor modifications. […] Acetylated COX2 proteins bound to the beads were analyzed using a Tri-Carb 3110TR liquid scintillation counter (Perkin-Elmer).

[1] = target: T2, COX2 of WT and APP/PS1 mice (Mus musculus, UniProt Q05769); assay: in vivo COX2 acetylation in microglia and neuron after oral [14C] N-AS (Supplementary Fig 4d)
T2 construct: from tissue; host or cells: microglia and neurons isolated from brain of 9-months-old WT and APP/PS1 mice
T2 sequence (Q05769 18-604): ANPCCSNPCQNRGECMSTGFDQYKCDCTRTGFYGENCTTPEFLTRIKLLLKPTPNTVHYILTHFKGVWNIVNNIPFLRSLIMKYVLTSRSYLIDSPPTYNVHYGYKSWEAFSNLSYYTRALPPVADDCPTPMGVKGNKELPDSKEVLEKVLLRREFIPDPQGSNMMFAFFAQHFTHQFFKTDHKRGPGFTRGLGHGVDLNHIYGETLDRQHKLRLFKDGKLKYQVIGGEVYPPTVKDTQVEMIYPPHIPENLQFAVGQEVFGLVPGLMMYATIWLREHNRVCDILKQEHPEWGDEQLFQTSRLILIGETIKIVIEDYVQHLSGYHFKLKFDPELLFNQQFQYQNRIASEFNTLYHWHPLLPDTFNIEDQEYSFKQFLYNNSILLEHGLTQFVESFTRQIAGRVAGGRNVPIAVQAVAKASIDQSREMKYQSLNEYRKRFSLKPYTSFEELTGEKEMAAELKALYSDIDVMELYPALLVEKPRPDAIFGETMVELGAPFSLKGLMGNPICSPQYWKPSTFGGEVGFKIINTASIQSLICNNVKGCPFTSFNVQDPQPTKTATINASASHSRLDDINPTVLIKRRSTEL
Method: Acetylation assays were performed according to previously described procedures with minor modifications. […] To confirm the N-AS-mediated COX2 acetylation, 10 μg COX2 (WT or mutants) was used incubated with [^14C] N-AS (2 μCi, ARC UK Ltd, ARC-1024) at 37 °C for 2 h. [^14C] aspirin (2 μCi, ARC UK Ltd, ARC-0473) was conducted as the positive control. The reactions were terminated by placing the reaction tubes in ice for 5 min. To evaluate in vivo neuronal and microglial COX2 acetylation, 10 μCi [^14C] N-AS was orally administrated to 9-months-old WT and APP/PS1 mice. After 1 h, neuron and microglia were isolated and sonicated in culture media. To immunoprecipitate acetylated COX2, the sample was incubated with COX2 antibody (Abcam, ab15191) at 4 °C for 24 h and precipitated by adding 50 μl of protein-A sepharose (GE Healthcare). Acetylated COX2 proteins bound to the beads were analyzed using a Tri-Carb 3110TR liquid scintillation counter (Perkin-Elmer).

## CCCCCCCCCCCCC/C=C/[C@@H](O)[C@H](CO)NC(C)=O [N-AS, N-((2S,3R,E)-1,3-Dihydroxyoctadec-4-en-2-yl)acetamide]
COX2 T564A
  C14 radioactivity of COX2, acetylation assay (Fig 1h): 226529 and 226073 and 226403 and 227396 and 226676 and 226952
[1]; Microglia, APP/PS1 mice, relative to WT = 100, listed as [14C] N-AS
  in vivo COX2 acetylation after oral [14C] N-AS (sFig 4d): 223.529 and 255.556 and 247.368 and 238.095 and 191.304 and 233.333
[1]; Microglia, WT mice (set to 100)
  in vivo COX2 acetylation after oral [14C] N-AS (sFig 4d): 100
[1]; Neuron, APP/PS1 mice, relative to WT = 100, listed as [14C] N-AS
  in vivo COX2 acetylation after oral [14C] N-AS (sFig 4d): 104 and 95.8333 and 96.1539 and 114.286 and 112.5
[1]; Neuron, WT mice (set to 100)
  in vivo COX2 acetylation after oral [14C] N-AS (sFig 4d): 100
[1]; oral [14C] N-AS, APP/PS1 vs WT microglia
  [14C] radioreactivity of COX2 from microglia: more avidly bound to and acetylated COX2 of APP/PS1 microglia
[1]; oral [14C] N-AS, APP/PS1 vs WT neurons
  [14C] radioreactivity of COX2 from neurons: no significant differences were observed in neurons
